From patent US12624044B2, “SMARCA degraders and uses thereof” (Kymera Therapeutics, Inc., priority 2019, dated 2026) come the findings set out here.

The target of test [1] is SMARCA2 (Homo sapiens, UniProt P51531). As to the kind of experiment: MSD SMARCA2 degradation in A549 cell line. The test is classed as cell-based. The following applies: 24 h; for Dmax: A549, A549 cells; for DC50: A549 cells, read-out: SMARCA2 MSD A549 degradation 24 h: Average external-Abs DC50. Put shortly: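 A549 cells treated 24 h with compound at final 0.152-1000 nM (3-fold series, DMSO control). Lysates analyzed by MSD immunoassay using anti-SMARCA2/BRM detection and SULFO-TAG secondary antibodies; maximal degradation (Dmax %) reported as letter bins.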

The target in test [2] is T1, SMARCA4 (Homo sapiens, UniProt P51532).
T1 construct: SMARCA2 and SMARCA4 protein degradation in MV4-11 cells; endogenous in cells; host or cells: MV4-11
Nature of the test: SMARCA4 Western blot MV4-11 degradation. Format: cell-based. The following applies: 24 h; for Dmax: MV4-11, MV4-11 cells, read-out: SMARCA4 WB MV411 degradation 24 h: Average Dmax %; for DC50: MV4-11 cells, read-out: SMARCA4 WB MV411 degradation 24 h: Average external-Abs DC50. Put shortly: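 MV4-11 cells treated with compound for 24 h, lysed in RIPA with protease/phosphatase inhibitors, and SMARCA2 and SMARCA4 (BRG1) levels assessed by Western blot with β-actin loading control and LI-COR fluorescent read-out. Maximal degradation (Dmax %) after 24 h binned into letter codes.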
(In general: In western blotting, separated proteins are transferred to a membrane and probed.)

T1 sequence (P51532 whole entry): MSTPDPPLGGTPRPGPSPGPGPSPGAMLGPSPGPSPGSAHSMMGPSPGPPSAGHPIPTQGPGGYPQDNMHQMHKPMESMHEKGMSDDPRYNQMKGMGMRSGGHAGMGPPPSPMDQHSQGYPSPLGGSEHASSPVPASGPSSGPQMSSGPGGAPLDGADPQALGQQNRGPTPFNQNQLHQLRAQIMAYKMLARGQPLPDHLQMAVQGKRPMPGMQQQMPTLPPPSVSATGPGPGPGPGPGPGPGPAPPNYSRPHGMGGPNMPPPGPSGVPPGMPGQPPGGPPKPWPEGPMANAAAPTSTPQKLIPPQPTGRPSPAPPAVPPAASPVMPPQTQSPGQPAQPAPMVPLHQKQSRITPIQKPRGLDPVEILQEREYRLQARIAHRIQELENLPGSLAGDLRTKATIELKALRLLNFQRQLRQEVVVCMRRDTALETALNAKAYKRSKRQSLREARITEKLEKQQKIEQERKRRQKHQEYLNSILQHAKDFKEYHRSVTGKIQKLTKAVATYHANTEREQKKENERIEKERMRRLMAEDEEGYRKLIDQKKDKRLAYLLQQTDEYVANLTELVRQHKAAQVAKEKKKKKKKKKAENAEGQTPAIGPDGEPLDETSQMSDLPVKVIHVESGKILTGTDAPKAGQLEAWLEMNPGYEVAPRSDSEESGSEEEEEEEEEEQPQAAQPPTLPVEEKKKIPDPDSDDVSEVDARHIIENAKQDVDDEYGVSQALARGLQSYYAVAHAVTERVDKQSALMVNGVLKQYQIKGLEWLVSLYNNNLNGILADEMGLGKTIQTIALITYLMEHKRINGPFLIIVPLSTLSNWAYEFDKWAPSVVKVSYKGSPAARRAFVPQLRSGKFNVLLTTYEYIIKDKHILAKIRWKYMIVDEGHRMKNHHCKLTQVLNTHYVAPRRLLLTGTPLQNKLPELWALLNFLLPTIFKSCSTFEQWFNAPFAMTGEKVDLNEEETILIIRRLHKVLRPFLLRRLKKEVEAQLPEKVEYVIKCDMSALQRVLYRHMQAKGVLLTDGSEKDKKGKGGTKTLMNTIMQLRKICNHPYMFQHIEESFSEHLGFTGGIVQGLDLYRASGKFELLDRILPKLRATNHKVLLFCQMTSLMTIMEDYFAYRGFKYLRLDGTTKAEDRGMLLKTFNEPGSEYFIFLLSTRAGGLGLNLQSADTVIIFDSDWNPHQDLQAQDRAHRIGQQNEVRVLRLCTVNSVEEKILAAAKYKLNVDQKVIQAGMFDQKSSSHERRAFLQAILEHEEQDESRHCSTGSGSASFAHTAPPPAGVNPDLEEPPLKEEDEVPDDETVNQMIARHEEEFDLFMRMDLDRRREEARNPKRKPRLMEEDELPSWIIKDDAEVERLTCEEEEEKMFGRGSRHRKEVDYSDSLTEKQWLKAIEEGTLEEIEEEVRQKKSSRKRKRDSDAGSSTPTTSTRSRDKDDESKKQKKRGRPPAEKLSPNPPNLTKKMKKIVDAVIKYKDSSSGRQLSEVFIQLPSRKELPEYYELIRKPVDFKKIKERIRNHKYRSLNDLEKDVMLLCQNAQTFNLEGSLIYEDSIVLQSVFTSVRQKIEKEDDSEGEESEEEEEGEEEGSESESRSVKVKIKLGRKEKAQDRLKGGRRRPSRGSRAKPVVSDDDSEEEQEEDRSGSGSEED
Chain of SMARCA2 (P51531 whole entry): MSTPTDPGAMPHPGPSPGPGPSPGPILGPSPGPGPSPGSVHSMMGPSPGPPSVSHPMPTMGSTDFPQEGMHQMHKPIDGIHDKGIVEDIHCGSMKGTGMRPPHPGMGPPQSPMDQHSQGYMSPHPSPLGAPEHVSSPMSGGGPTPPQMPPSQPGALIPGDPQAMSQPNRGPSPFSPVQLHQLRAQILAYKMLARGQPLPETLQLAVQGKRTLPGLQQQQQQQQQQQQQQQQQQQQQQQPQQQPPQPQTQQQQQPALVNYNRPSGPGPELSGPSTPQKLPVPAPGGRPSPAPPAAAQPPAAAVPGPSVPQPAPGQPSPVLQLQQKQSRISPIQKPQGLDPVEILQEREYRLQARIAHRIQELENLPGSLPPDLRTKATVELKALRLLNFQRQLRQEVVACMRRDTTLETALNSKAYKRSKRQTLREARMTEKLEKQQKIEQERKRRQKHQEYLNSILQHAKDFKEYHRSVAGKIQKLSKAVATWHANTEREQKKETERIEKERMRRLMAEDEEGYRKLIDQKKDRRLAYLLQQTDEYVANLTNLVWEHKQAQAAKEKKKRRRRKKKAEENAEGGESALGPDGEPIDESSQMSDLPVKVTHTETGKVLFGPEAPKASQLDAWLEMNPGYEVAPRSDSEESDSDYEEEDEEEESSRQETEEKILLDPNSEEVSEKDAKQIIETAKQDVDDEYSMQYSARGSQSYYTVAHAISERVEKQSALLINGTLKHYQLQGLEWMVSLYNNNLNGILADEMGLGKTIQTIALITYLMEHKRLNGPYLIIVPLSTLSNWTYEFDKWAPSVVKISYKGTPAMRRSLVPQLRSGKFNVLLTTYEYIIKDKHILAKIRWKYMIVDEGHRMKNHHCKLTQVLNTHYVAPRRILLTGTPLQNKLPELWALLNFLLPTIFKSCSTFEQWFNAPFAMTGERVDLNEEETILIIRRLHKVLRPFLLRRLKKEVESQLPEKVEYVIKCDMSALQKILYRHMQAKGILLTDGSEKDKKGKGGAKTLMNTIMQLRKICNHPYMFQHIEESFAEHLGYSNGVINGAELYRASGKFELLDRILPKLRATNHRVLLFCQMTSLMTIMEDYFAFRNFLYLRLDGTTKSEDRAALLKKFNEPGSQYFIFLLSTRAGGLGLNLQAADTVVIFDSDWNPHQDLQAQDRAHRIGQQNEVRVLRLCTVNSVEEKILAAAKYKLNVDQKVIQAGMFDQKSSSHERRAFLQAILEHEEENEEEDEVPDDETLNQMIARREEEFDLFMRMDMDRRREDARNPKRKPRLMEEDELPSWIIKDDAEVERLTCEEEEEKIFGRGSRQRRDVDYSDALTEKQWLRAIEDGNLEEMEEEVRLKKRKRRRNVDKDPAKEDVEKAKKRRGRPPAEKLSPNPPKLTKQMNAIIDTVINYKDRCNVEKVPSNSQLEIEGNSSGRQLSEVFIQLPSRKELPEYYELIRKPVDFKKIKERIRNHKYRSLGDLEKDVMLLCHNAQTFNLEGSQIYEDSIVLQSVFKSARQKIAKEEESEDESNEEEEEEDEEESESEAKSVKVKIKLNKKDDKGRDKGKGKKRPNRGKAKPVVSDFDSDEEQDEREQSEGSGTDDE

For `Nc1nnc(-c2ccccc2O)cc1-c1cnn(C2CCN(C3CCC(Nc4cccc5c4C(=O)N(C4CCC(=O)NC4=O)C5=O)CC3)CC2)c1` (stereo not drawn) [I-322], in test [1], the Dmax (commonly the largest share of the target that was removed) was more than 90% and the DC50 – broadly, the concentration giving 50% degradation – was less than 0.1 µM. Also, in test [2], the Dmax is more than 90% and the DC50 was less than 0.1 µM.
Take `Nc1nnc(-c2ccccc2O)cc1-c1cnn(C2CCN(C3CCC(Nc4ccc5c(c4)C(=O)N(C4CCC(=O)NC4=O)C5=O)CC3)CC2)c1` (stereo not drawn) [I-323]: the Dmax in test [1] and in test [2] was more than 90% throughout. The DC50 in test [1] and in test [2] was less than 0.1 µM throughout.
On to `Nc1nnc(-c2ccccc2O)cc1-c1cnn(C2CCN(C3CCC(CNc4cccc5c4C(=O)N(C4CCC(=O)NC4=O)C5=O)CC3)CC2)c1` (stereo not drawn) [I-324], for which, in test [1], the Dmax lay within 70 to 90% and the DC50 is less than 0.1 µM. In test [2], the Dmax is 70 to 90% and the DC50 was less than 0.1 µM.
`Nc1nnc(-c2ccccc2O)cc1-c1cnn(C2CCN([C@H]3CC[C@H](CNc4ccc5c(c4)C(=O)N(C4CCC(=O)NC4=O)C5=O)CC3)CC2)c1` (stereo partly drawn) [I-325, 5-((((1r,4r)-4-(4-(4-(3-amino-6-(2-hydroxyphenyl)pyridazin-4-yl)-1H-pyrazol-1-yl)piperidin-1-yl)cyclohexyl)methyl)amino)-2-(2,6-dioxopiperidin-3-yl)isoindoline-1,3-dione]: in test [1], the Dmax was in the range of 70 to 90% and the DC50 was less than 0.1 µM. In addition, in test [2], the Dmax was in the range of 70 to 90% and the DC50 is less than 0.1 µM.
Turning to `COc1ccccc1-c1cc(N2CC3CCC(C2)N3c2ncc(C3CCN(CCCc4ccc5c(c4)n(C)c(=O)n5C4CCC(=O)NC4=O)CC3)cn2)c(N)nn1` (stereo not drawn) [I-326], in test [1], the maximal degradation (Dmax) is less than 50% and the DC50 was more than 1 µM. In addition, in test [2], the Dmax was 50 to 70% and the DC50 is 0.1 to 0.5 µM.
For the molecule `Cc1ncsc1-c1ccc(CNC(=O)[C@@H]2C[C@@H](O)CN2C(=O)[C@@H](NC(=O)C[C@H]2CC[C@H](N3CCC(n4cc(-c5cc(-c6ccccc6O)nnc5N)cn4)CC3)CC2)C(C)(C)C)cc1` [I-328], in test [1], the Dmax is more than 90% and the DC50 fell in the range of 0.1 to 0.5 µM. Further, in test [2], the maximal degradation (Dmax) is more than 90% and the DC50 is less than 0.1 µM.
Turning to `Cc1ncsc1-c1ccc(CNC(=O)[C@@H]2C[C@@H](O)CN2C(=O)[C@@H](NC(=O)C2CC3(C2)CC(N2CCC(n4cc(-c5cc(-c6ccccc6O)nnc5N)cn4)CC2)C3)C(C)(C)C)cc1` (stereo partly drawn) [I-329], in test [1], the Dmax was more than 90% and the DC50 fell in the range of 0.1 to 0.5 µM. In test [2], the Dmax is more than 90% and the DC50 is less than 0.1 µM.
For the molecule `Cc1ncsc1-c1ccc(CNC(=O)[C@@H]2C[C@@H](O)CN2C(=O)[C@@H](NC(=O)CCCCCC2CCC(N3CCC(Cn4cc(-c5cc(-c6ccccc6O)nnc5N)cn4)CC3)CC2)C(C)(C)C)cc1` (stereo partly drawn) [I-330], in test [1], the Dmax was more than 90% and the DC50 was 0.1 to 0.5 µM. Also, in test [2], the Dmax is 70 to 90% and the DC50 was less than 0.1 µM.
For the molecule `COc1ccccc1-c1cc(N2CC3CCC(C2)N3c2ncc([C@H]3CC[C@@H](CC(=O)N[C@H](C(=O)N4C[C@H](O)C[C@H]4C(=O)NCc4ccc(-c5scnc5C)cc4)C(C)(C)C)CC3)cn2)c(N)nn1` [I-331], in test [1], the Dmax is more than 90% and the DC50 is 0.1 to 0.5 µM. Also, in test [2], the Dmax is more than 90% and the DC50 was less than 0.1 µM.
As to `Cc1ncsc1-c1ccc(CNC(=O)[C@@H]2C[C@@H](O)CN2C(=O)[C@@H](NC(=O)C[C@H]2CC[C@H](c3cnc(N4C5CCC4CN(c4cc(-c6ccccc6O)nnc4N)C5)nc3)CC2)C(C)(C)C)cc1` [I-332], the Dmax in test [1] and in test [2] was more than 90% each time. The DC50 in test [1] and in test [2] was less than 0.1 µM each time.
Take `Cc1ncsc1-c1ccc(CNC(=O)[C@@H]2C[C@@H](O)CN2C(=O)[C@@H](NC(=O)N[C@H]2CC[C@H](c3cnc(N4C5CCC4CN(c4cc(-c6ccccc6O)nnc4N)C5)nc3)CC2)C(C)(C)C)cc1` [I-333]: in test [1], the Dmax was less than 50% and the DC50 was more than 1 µM. In test [2], the Dmax was more than 90% and the DC50 is less than 0.1 µM.
For the molecule `Cc1ncsc1-c1ccc(CNC(=O)[C@@H]2C[C@@H](O)CN2C(=O)[C@@H](NC(=O)N[C@H]2CC[C@@H](c3cnc(N4C5CCC4CN(c4cc(-c6ccccc6O)nnc4N)C5)nc3)CC2)C(C)(C)C)cc1` [I-334], in test [1], the Dmax was in the range of 70 to 90% and the DC50 was 0.501 to 1 µM. Moreover, in test [2], the Dmax was more than 90% and the DC50 was less than 0.1 µM.
The matching figures for `Cc1ncsc1-c1ccc(CNC(=O)[C@@H]2C[C@@H](O)CN2C(=O)[C@@H](NC(=O)Cc2ccc(-c3cnc(N4C5CCC4CN(c4cc(-c6ccccc6O)nnc4N)C5)nc3)cc2)C(C)(C)C)cc1` [I-335]: more than 90%, less than 0.1 µM, more than 90% and less than 0.1 µM.
`Cc1ncsc1-c1ccc(CNC(=O)[C@@H]2C[C@@H](O)CN2C(=O)[C@@H](NC(=O)C2CCN(Cc3cnc(N4C5CCC4CN(c4cc(-c6ccccc6O)nnc4N)C5)nc3)CC2)C(C)(C)C)cc1` [I-338]: in test [1], the Dmax was more than 90% and the DC50 lay in the range of 0.1 to 0.5 µM. Also, in test [2], the Dmax was more than 90% and the 50% degradation concentration (DC50) is less than 0.1 µM.
Turning to `Cc1ncsc1-c1ccc(CNC(=O)[C@@H]2C[C@@H](O)CN2C(=O)[C@@H](NC(=O)N2CCN(Cc3cnc(N4C5CCC4CN(c4cc(-c6ccccc6O)nnc4N)C5)nc3)CC2)C(C)(C)C)cc1` [I-339], in test [1], the Dmax lay in the range of 70 to 90% and the DC50 is 0.1 to 0.5 µM. In test [2], the Dmax is more than 90% and the DC50 is less than 0.1 µM.
The matching figures for `Cc1ncsc1-c1ccc(CNC(=O)[C@@H]2C[C@@H](O)CN2C(=O)[C@@H](NC(=O)COCC#Cc2cnc(N3C4CCC3CN(c3cc(-c5ccccc5O)nnc3N)C4)nc2)C(C)(C)C)cc1` [I-340]: more than 90%, 0.1 to 0.5 µM, more than 90% and less than 0.1 µM.
Turning to `Cc1ncsc1-c1ccc(CNC(=O)[C@@H]2C[C@@H](O)CN2C(=O)[C@@H](NC(=O)CCCC#Cc2cnc(N3C4CCC3CN(c3cc(-c5ccccc5O)nnc3N)C4)nc2)C(C)(C)C)cc1` [I-341], in test [1], the Dmax is more than 90% and the DC50 is 0.1 to 0.5 µM. In addition, in test [2], the Dmax is more than 90% and the DC50 is less than 0.1 µM.
For the molecule `Cc1ncsc1-c1ccc(CNC(=O)[C@@H]2C[C@@H](O)CN2C(=O)[C@@H](NC(=O)C2CCN(C(=O)c3cnc(N4C5CCC4CN(c4cc(-c6ccccc6O)nnc4N)C5)nc3)CC2)C(C)(C)C)cc1` [I-342, 1-[2-[3-[3-amino-6-(2-hydroxyphenyl)pyridazin-4-yl]-3,8-diazabicyclo [3.2.1]octan-8-yl]pyrimidine-5-carbonyl]-N-[(1S)-1-[(2S,4R)-4-hydroxy-2-[[4-(4-methylthiazol-5-yl)phenyl]methylcarbamoyl]pyrrolidine-1-carbonyl]-2,2-dimethyl-propyl]piperidine-4-carboxamide], the Dmax in test [1] is less than 50%; in test [2], 70 to 90%. Also, the results for the DC50 in test [1] and in test [2] were more than 1 µM and 0.1 to 0.5 µM, respectively.
The like results for `Cc1ncsc1-c1ccc(CNC(=O)[C@@H]2C[C@@H](O)CN2C(=O)[C@@H](NC(=O)N2CCN(C(=O)c3cnc(N4C5CCC4CN(c4cc(-c6ccccc6O)nnc4N)C5)nc3)CC2)C(C)(C)C)cc1` [I-343] were, in that order, less than 50%, more than 90%, more than 1 µM and 0.1 to 0.5 µM.
The matching figures for `Cc1ncsc1-c1ccc(CNC(=O)[C@@H]2C[C@@H](O)CN2C(=O)[C@@H](NC(=O)C(=O)N2CCC(c3cnc(N4C5CCC4CN(c4cc(-c6ccccc6O)nnc4N)C5)nc3)CC2)C(C)(C)C)cc1` [I-344]: less than 50%, 50 to 70%, more than 1 µM and more than 1 µM.
The matching figures for `Cc1cc(CC(=O)N[C@H](C(=O)N2C[C@H](O)C[C@H]2C(=O)NCc2ccc(-c3scnc3C)cc2)C(C)(C)C)ccc1-c1cnc(N2C3CCC2CN(c2cc(-c4ccccc4O)nnc2N)C3)nc1` [I-345]: more than 90%, more than 90%, less than 0.1 µM and less than 0.1 µM.
Turning to `Cc1ncsc1-c1ccc(CNC(=O)[C@@H]2C[C@@H](O)CN2C(=O)C(NC(=O)C[C@H]2CC[C@@H](N3CCC(c4cnc(N5C6CCC5CN(c5cc(-c7ccccc7O)nnc5N)C6)nc4)CC3)CC2)C(C)(C)C)cc1` (stereo partly drawn) [I-346], in test [1], the Dmax is more than 90% and the DC50 lay within 0.1 to 0.5 µM. For the same molecule, in test [2], the Dmax was in the range of 70 to 90% and the DC50 is less than 0.1 µM.
On to `Cc1ncsc1-c1ccc(CNC(=O)[C@@H]2C[C@@H](O)CN2C(=O)[C@@H](NC(=O)[C@H]2CC[C@@H](N3CCC(c4cnc(N5C6CCC5CN(c5cc(-c7ccccc7O)nnc5N)C6)nc4)CC3)CC2)C(C)(C)C)cc1` [I-347], for which, in test [1], the Dmax was 70 to 90% and the DC50 was in the range of 0.1 to 0.5 µM. For the same molecule, in test [2], the Dmax lay in the range of 50 to 70% and the DC50 was more than 1 µM.
The matching figures for `Cc1ncsc1-c1ccc(CNC(=O)[C@@H]2C[C@@H](O)CN2C(=O)[C@@H](NC(=O)c2ccc(CN3CCC(c4cnc(N5C6CCC5CN(c5cc(-c7ccccc7O)nnc5N)C6)nc4)CC3)cc2)C(C)(C)C)cc1` [I-348]: more than 90%, less than 0.1 µM, more than 90% and less than 0.1 µM.
